Results published in patent publication US20200121651A1, “Pramipexole for Use in the Treatment of Pain” (STC.UNM, priority 2018, published 2020).
Read-outs that look alike come from different tables or passages of the source.

How the values were obtained:
[1] = system: TLR4-mediated IL-1β release in THP-1 cells; conditions: for IL-1β release in the presence of LPS stimulation / basal cellular levels of IL-1β: THP-1 cells; for basal cellular levels of IL-1β: pramipexole alone, no LPS
Experimental: The assay was performed according to the manufacturer's instructions.

[2] = system: allodynia in CCI mice; conditions: for effect on allodynia (hindpaw absolute threshold): male CCI mice, i.v. injection day 10 post surgery, identical ipsilateral and contralateral
Experimental: The current report analyzed adult (10-16 week old) male C57BL/6 mice (wildtype; FFID: IMSR_JAX:000664) purchased from Jackson Laboratories (Bar Harbor, Me., USA). Mice were maintained on a standard 12:12 light/dark cycle (lights on from 0600 hours to 1800 hours) in a temperature controlled environment (23°±2° C.) for the duration of the study. Additionally, mice were housed in groups of 4-5 mice/cage, of which all mice were routinely monitored by the animal care staff under the direction of the institutional veterinarian, fed standard rodent chow and water ad libitum, with cages and bedding changed every 7 days. All procedures were approved by the Institutional Animal Care and Use Committee (IACUC) of the University of New Mexico Health Sciences Center, conducted in accordance to the NIH Guidelines for the Care and Use of Laboratory Animals, and closely adhered to guidelines from the International Association for the Study of Pain for the use of animals in research (Foundation for Biomedical Research, The Biomedical Investigator's Handbook for Researchers Using Animal Models. Washington, D.C.: FBR, 1987. WWW: http://www.fbresearch.org/).
This study utilized a modified version of a well-established rat peripheral nerve injury model in which pathological sensitivity to light touch, clinically termed allodynia, is induced through a chronic constriction injury (CCI) (Bennett and Xie 1988). […] Under isoflurane anesthesia (1.5-2.0% volume in oxygen, 2.0 l/min), the dorsal left thigh was shaved and cleaned using 70% Ethanol (EtOH) that was air dried prior to surgery. Utilizing a small incision over the posterior thigh, remaining […] below the femur bone, from hip bone to the patella, the muscle fascia of the mouse was exposed. Using aseptic procedures, a blunt dissection was performed to carefully isolate the sciatic nerve by separating the overlying muscular fascia. Sterile plastic probes were then used to locate and lift the sciatic nerve from its pocket within the muscle tissue. Mice were then subjected to unilateral loose ligation of the sciatic nerve with three 5-0 chromic gut sutures (Ethicon; Somerville, N.J., Cat #634G) which were snugly tied around the sciatic nerve (avoiding pinching) proximal to the trifurcation with 1.5 mm spacing between sutures. Throughout the duration of the surgery, sterile 0.9% isotonic saline (Hospira; Cat #NDC 0409-4888-03) was irrigated over the sciatic nerve to prevent dehydration. Sham surgery followed the same CCI surgical procedure identically but without ligation. Upon ligation, the sciatic nerve was gently placed back into its correct anatomical position using the sterile plastic probes, and the overlying muscle fascia was stitched closed using one 4-0 sterile silk sutures (Ethicon; Somerville, N.J., Cat #83G). Wound clips (Kent Scientific Corp.; Cat #INS750344) were then utilized to seal the incision closed at which point the surgical procedure was complete. […] Body weight was monitored prior to and after surgery.
Upon a 7-14 day acclimation to the testing environment, mice were subjected to a habituation period. The habituation period included placing the mice atop a testing rack within the first 4 hours of the light cycle (lights on from 0600 hours to 1800 hours) in a sound and temperature (23°±2° C.) controlled environment, allowing full access to the plantar hindpaw. Mice were exposed to four separate habitation periods for approximately 45 min/day.

[3] = CCI mice, i.v. day 10 post surgery

Question: `CCCN[C@H]1CCc2nc(N)sc2C1` [Pramipexole, (6S)-6-N-propyl-4,5,6,7-tetrahydro-1,3-benzothiazole-2,6-diamine] was tested. Which “IL-1β release in the presence of LPS stimulation” value ([1]; 5 pg pramipexole plus LPS) did it give?
Answer: The value was “significantly blunts”.

Question: And the “IL-1β release in the presence of LPS stimulation” value ([1]; 500 pg pramipexole plus LPS)?
Answer: Its value is “significantly blunts”.

Question: And the “basal cellular levels of IL-1β” value ([1]; 5 pg)?
Answer: Its value is “does not significantly alter”.

Question: What about the “basal cellular levels of IL-1β” value ([1]; 500 pg) of the same molecule?
Answer: The value was “does not significantly alter”.

Question: And the TLR4-IL-1b activation pathway ([1]; cell-based assay using human THP-1 cells)?
Answer: The TLR4-IL-1b activation pathway was “inhibits the TLR4-IL-1b activation pathway”.

Question: And the “efficacy on hindpaw withdraw thresholds, hours 24-72 post-injection” value ([2]; CCI mice, i.v. 0.5 μg)?
Answer: Its value is “complete dissipation in the efficacy”.

Question: And the “time post-injection by which mice returned to allodynia” value ([2]; CCI mice, i.v. 0.5 μg)?
Answer: The value was at most 24 h.

Question: And the “time to complete reversal from allodynia” value ([2]; CCI mice, i.v. 0.5 μg, day 10 post-surgery)?
Answer: The value was at most 2 h.

Question: What about the “efficacy on hindpaw withdraw thresholds, hours 24-72 post-injection” value ([2]; CCI mice, i.v. 5 μg) of the same molecule?
Answer: Its value is “complete dissipation in the efficacy”.

Question: What about the “time post-injection by which mice returned to allodynia” value ([2]; CCI mice, i.v. 5 μg) of the same molecule?
Answer: Its value is at most 24 h.

Question: And the “time to complete reversal from allodynia” value ([2]; CCI mice, i.v. 5 μg, day 10 post-surgery)?
Answer: The value was at most 2 h.

Question: And the duration of efficacy [2, 3]?
Answer: Its duration of efficacy is “up to 2 hours”.

Question: What about the “time of maximal efficacy post-injection” value [2, 3] of the same molecule?
Answer: The value was 2 h.

Question: What about the “time to complete reversal from allodynia” value ([2]; CCI mice, i.v. day 10 post surgery, dose not given in FIG. 1 legend) of the same molecule?
Answer: The value was at most 1 h.

Question: And the “effect on allodynia (hindpaw absolute threshold)” value [2]?
Answer: Its value is “completely reversed from allodynia”.

Question: What about the “effect on allodynia (hindpaw absolute threshold)” value ([2]; listed as pramipexole) of the same molecule?
Answer: Its value is “completely abolishes allodynia”.
